Experimental data taken from patent US11155517B2, “4-substituted phenylamine derivatives and their use to protect crops by fighting undesired phytopathogenic micoorganisms” (PI INDUSTRIES LTD., priority 2016, dated 2021).

Tests used:
[1] = test system: Botrytis cinera; assay: Greenhouse Botrytis cinera test in tomato, preventive; assay type: in vivo; conditions: 24 h, plants sprayed one day before inoculation, read-out: Efficacy (% control), disease severity vs untreated check
[2] = test system: Fusarium culmorum; assay: Greenhouse Fusarium culmorum test in wheat, preventive; assay type: in vivo; conditions: 24 h, read-out: Efficacy (% control), disease severity vs untreated check
Experimental: Compounds were dissolved in 2% DMSO/Acetone & then mixed with water to calibrated spray volume of 50 ml. This 50 ml spray solution was poured into the spray bottles for further applications.
To test the preventive activity of compounds, healthy young wheat plants raised in the greenhouse were sprayed with active compound preparation at the stated application rates inside the spray cabinets using hallowcone nozzles. One day after treatment, the plants were inoculated with spore suspension (2% Malt) containing 2×10^6 Fusarium culmorum inoculum. The inoculated plants were then kept in greenhouse chamber at 24° C. temperature and 80-90% relative humidity for disease expression.
A visual assessment of compound's performance was carried by rating the disease severity (0-100% scale) on treated plants on 3, 7, 10 and 15 days after application. Efficacy (% control) of the compounds was calculated by comparing the disease rating in the treatment with untreated control. The sprayed plants were also assessed for compound's phytotoxic effects by recording symptoms like necrosis, chlorosis and stunting.

[3] = test system: Pyricularia oryzae; assay: microbe, parasite or virus in culture; assay type: cell-based; conditions: 168 h, read-out: % control compared to the untreated check (radial growth)
[4] = test system: Alternaria solani; assay: Alternaria solani (early blight of tomato/potato) in vitro test, radial growth on Potato Dextrose Agar; assay type: cell-based; conditions: 168 h, 300 ppm, seven days, 25° C., read-out: % control compared to the untreated check (radial growth)
[5] = test system: Botrytis cinerea; assay: Botrytis cinerea (gray mold) in vitro test, radial growth on Potato Dextrose Agar; assay type: cell-based; conditions: 168 h, 300 ppm, seven days, 22° C., read-out: % (control) compared to the untreated check (radial growth)
[6] = test system: Fusarium culmorum; assay: Fusarium culmorum (foot rot of cereals) in vitro test, radial growth on Potato Dextrose Agar; assay type: cell-based; conditions: Fusarium culmorum, 168 h, read-out: % control compared to the untreated check (radial growth)
[7] = test system: Colletotrichum capsici; assay: Colletotrichum capsici (anthracnose) in vitro test, radial growth on Potato Dextrose Agar; assay type: cell-based; conditions: Colletotrichum truncatum, 168 h; 300 ppm; seven days, 25° C.; read-out: % control compared to the untreated check (radial growth)
[8] = test system: Septoria lycopersici; assay: Septoria lycopersici (leaf spot of tomato) in vitro test, radial growth on Potato Dextrose Agar; assay type: cell-based; conditions: 168 h, seven days, 25° C., read-out: % control compared to the untreated check (radial growth)
[9] = test system: Rhizoctonia solani; assay: Rhizoctonia solani (rice sheath blight/potato black scurf) in vitro test, radial growth on Potato Dextrose Agar; assay type: cell-based; conditions: 168 h, 300 ppm, seven days, 25° C., read-out: % control compared to the untreated check (radial growth)

Structure (SMILES) | pest or weed control at 500 ppm [1] | pest or weed control at 500 ppm [2] | inhibition of growth at 300 ppm [3] | inhibition of growth at 300 ppm [4] | inhibition of growth at 300 ppm [5] | inhibition of growth at 300 ppm [6] | inhibition of growth at 300 ppm [7] | inhibition of growth at 300 ppm [8] | inhibition of growth at 300 ppm [9]
CCN(C)C=Nc1cc(C)c(Cc2ccc(S(C)(=O)=O)cc2)cc1C [Compound 12, N′-(2,5-dimethyl-4-(4-(methylsulfonyl)benzyl)phenyl)-N-ethyl-N-methylformimidamide] | 70 to 100% | 70 to 100% | > 75% | > 75% | – | – | – | – | –
CCN(C)C=Nc1cc(F)c(Cc2cccc(F)c2)cc1C [Compound 172, N-ethyl-N′-(5-fluoro-4-(3-fluorobenzyl)-2-methylphenyl)-N-methylformimidamide] | – | 70 to 100% | > 75% | > 75% | > 80% | 75% | > 80% | > 70% | > 80%
Cc1cc(N=CN(C)C(C)C)c(C)cc1Cc1ccccc1F [Compound 81, N′-(4-(2-fluorobenzyl)-2,5-dimethylphenyl)-N-isopropyl-N-methylformimidamide] | – | 70 to 100% | > 75% | > 75% | > 80% | 75% | > 80% | > 70% | > 80%
CCN(C)C=Nc1cc(C)c(Cc2cccc(F)c2)cc1Cl [Compound 30, N′-(2-chloro-4-(3-fluorobenzyl)-5-methylphenyl)-N-ethyl-N-methylformimidamide] | – | 70 to 100% | > 75% | > 75% | > 80% | 75% | > 80% | > 70% | > 80%
CCN(C)C=Nc1cc(C)c(Cc2ccc(Cl)c(C(F)(F)F)c2)cc1Cl [Compound 136, N′-(2-chloro-4-(4-chloro-3-(trifluoromethyl)benzyl)-5-methylphenyl)-N-ethyl-N-methylformimidamide] | – | 70 to 100% | > 75% | > 75% | > 80% | 75% | > 80% | – | > 80%
CCN(C)C=Nc1cc(C)c(Cc2ccc(Cl)cc2)cc1C [Compound 7, N′-(4-(4-chlorobenzyl)-2,5-dimethylphenyl)-N-ethyl-N-methylformimidamide] | 70 to 100% | 70 to 100% | > 75% | > 75% | > 80% | 75% | > 80% | > 70% | > 80%
CCN(C)C=Nc1cc(C)c(Cc2cccc(Br)c2)cc1Cl [Compound 13, N′-(4-(3-bromobenzyl)-2-chloro-5-methylphenyl)-N-ethyl-N-methylformimidamide] | 70 to 100% | 70 to 100% | > 75% | > 75% | > 80% | – | > 80% | > 70% | > 80%
CCN(C)C=Nc1cc(C)c(Cc2ccc(F)c(Cl)c2)cc1C [Compound 28, N′-(4-(3-chloro-4-fluorobenzyl)-2,5-dimethylphenyl)-N-ethyl-N-methylformimidamide] | 70 to 100% | 70 to 100% | > 75% | > 75% | > 80% | 75% | > 80% | > 70% | > 80%
CCN(C)C=Nc1cc(C)c(Cc2ccc(F)cc2)cc1Cl [Compound 76, N′-(2-chloro-4-(4-fluorobenzyl)-5-methylphenyl)-N-ethyl-N-methylformimidamide] | – | 70 to 100% | > 75% | > 75% | > 80% | 75% | > 80% | – | > 80%
CCN(C)C=Nc1cc(C)c(Cc2ccc(Br)cc2)cc1Cl [Compound 22, N′-(4-(4-bromobenzyl)-2-chloro-5-methylphenyl)-N-ethyl-N-methylformimidamide] | 70 to 100% | 70 to 100% | > 75% | > 75% | > 80% | 75% | > 80% | > 70% | > 80%
CCN(C)C=Nc1cc(C)c(Cc2ccccc2Cl)cc1Cl [Compound 17, N′-(2-chloro-4-(2-chlorobenzyl)-5-methylphenyl)-N-ethyl-N-methylformimidamide] | 70 to 100% | 70 to 100% | > 75% | > 75% | > 80% | 75% | > 80% | > 70% | > 80%
CCN(C)C=Nc1cc(C)c(C2(c3ccccc3)SCCS2)cc1C [Compound 33, N′-(2,5-dimethyl-4-(2-phenyl-1,3-dithiolan-2-yl)phenyl)-N-ethyl-N-methylformimidamide] | – | 70 to 100% | > 75% | > 75% | – | – | – | > 70% | > 80%
CCN(C)C=Nc1cc(C)c(Cc2ccc(C(F)(F)F)cc2)cc1Cl [Compound 101, N′-(2-chloro-5-methyl-4-(4-(trifluoromethyl)benzyl)phenyl)-N-ethyl-N-methylformimidamide] | 70 to 100% | 70 to 100% | > 75% | > 75% | > 80% | – | – | – | > 80%
CCN(C)C=Nc1cc(C)c(Cc2ccccc2[N+](=O)[O-])cc1Cl [Compound 75, N′-(2-chloro-5-methyl-4-(2-nitrobenzyl)phenyl)-N-ethyl-N-methylformimidamide] | – | 70 to 100% | > 75% | > 75% | > 80% | 75% | > 80% | – | > 80%
CCN(C)C=Nc1cc(C)c(Cc2ccc(F)cc2)cc1C [Compound 57, N-ethyl-N′-(4-(4-fluorobenzyl)-2,5-dimethylphenyl)-N-methylformimidamide] | – | 70 to 100% | > 75% | > 75% | > 80% | 75% | > 80% | > 70% | > 80%
CCN(C)C=Nc1cc(C)c(Cc2cc(F)ccc2C)cc1C [Compound 157, N-ethyl-N′-(4-(5-fluoro-2-methylbenzyl)-2,5-dimethylphenyl)-N-methylformimidamide] | – | 70 to 100% | > 75% | > 75% | > 80% | 75% | > 80% | > 70% | > 80%
CCN(C)C=Nc1cc(C)c(Cc2cccc(C)c2)cc1C [Compound 6, N′-(2,5-dimethyl-4-(3-methylbenzyl)phenyl)-N-ethyl-N-methylformimidamide] | 70 to 100% | – | > 75% | > 75% | > 80% | 75% | > 80% | > 70% | > 80%
CCN(C)C=Nc1cc(C)c(Cc2ccc(SC(F)(F)F)cc2)cc1Cl [Compound 77, N′-(2-chloro-5-methyl-4-(4-((trifluoromethyl)thio)benzyl)phenyl)-N-ethyl-N-methylformimidamide] | – | 70 to 100% | > 75% | > 75% | > 80% | 75% | – | – | > 80%
